Series [1] concerns hypomyelinated optic nerves from Shiverer mice (shi^−/−). Kind of series: Compound action potential (CAP) of dissected hypomyelinated optic nerve. It is filed as cell-based, mouse. Conditions: for EC50: Mus musculus, hypomyelinated Shiverer optic nerve, 22 °C, Hill fit, read-out: half-maximal effective concentration (EC50) in enhancing the CAP. The method, then: In order to determine if the drugs could also be effective in enhancing compound action potentials (CAP), the effects of these compounds on the CAP of hypomyelinated optic nerves from Shiverer mice (shi^−/−) and control mice (shi^+/−, shi^+/+) were tested. Shiverer mice lack compact myelin in the CNS due to a null mutation of the myelin basic protein gene (MBP).
optic nerves were dissected from 12-16 week old Shiverer (shi^−/−) and control mice (shi^+/− and shi^+/+). Mice were euthanized by CO2 overdose and the optic nerves were quickly dissected between the eyeball and the optic chiasm. The nerves were incubated for 30 min at 37° C. in oxygenated (95% O2, 5% CO2) aCSF solution (126 mM NaCl, 3 mM KCl, 2 mM MgSO4, 26 mM NaHCO3, 2 mMCaCl2, 10 mM dextrose, pH 7.5) before the experiment.
compound action potentials (CAP) from hypomyelinated nerves (Shiverer mice, shi^−/−) and myelinated nerves (litermate controls, shi^+/− and shi^+/+) were recorded using suction electrodes as described by Stys et al. Briefly, the dissected optic nerve was placed inside a chamber containing oxygenated (5% CO2, 95% O2) aCSF (300 μL) between two suction electrodes (stimulus and recording electrodes) forming a tight seal on each end. Two additional electrodes were placed in the bath for reference. A supramaximal pulse (250 mV, 20 μs) was applied at the stimulating end of the nerve. The resulting CAP was amplified from the recording electrode using a high impedance low-noise amplifier (EG&G Princeton Applied Research Corporation) and filtered and sampled at 10-100 kHz. […] After each measurement the chamber was washed for 5 min (flow 1 mL/min) with oxygenated aCSF. The study was conducted at 22.2±1.3° C. to allow for slower conduction and the temperature was monitored throughout the experiment. CAP recordings were acquired with a SBC6711 board (Innovative Integration) controlled by in-house written software. Analysis of the traces was done using an in-house software. The half-maximal effective concentration (EC50) for each drug was calculated by plotting the final over initial amplitude vs. concentration and fitted to the Hill equation using Origin.
The Hill equation used to fit the data from the voltage-clamp and the optic nerve experiments was as follows: y=y0+(yf−y0)*x^n/(k^n+x^n); where n refers to the Hill coefficient (typically 1±0.1) and k refers to EC50 or IC50. y0 and yf refers to the origin and final ordinate values and were fixed at 1±0.1 or 0±0.1 depending on the experiment. EC50=10^<log EC50>; where <log EC50>=average of log EC50 values from all experiments with the same drug. 95% C.I.=[Upper Limit . . . Lower Limit]; where U.L.=10^(log EC50+s.d.) and L.L.=10^(log EC50−s.d.). The half-life (t1/2) in the stability and pharmacokinetic experiments was calculated by fitting the data to the equation Ct=C0*exp(−k*t) where C0=initial concentration, Ct=concentration at time t, and k=ln 2/t1/2. Student t-test was used to compare results and P<0.05 was considered significant.

The subject of a further series is C57Bl/6J mice. Briefly: In vivo effects (tremor, seizures) after intraperitoneal injection. Also noted: species or system mouse. Conditions: for effects in mice: doses up to 20 times higher; for Effect: N = 5. On the procedure:
A consequence of excessive K^+ channel blockage is the advent of seizures. 4-AP is known to cause seizures in mice at high doses.
At high doses, 4-AP causes tremors, muscle spasms and seizures.
10-week-old female C57Bl/6J mice were given an intraperitoneal injection of the drug under investigation and monitored continuously for 4 h. After 4 h no signs of drug effects could be observed. At least 72 h passed between injections to the same mice.

The next series deals with T1, Shaker K^+ channel (Drosophila melanogaster, UniProt P08510).
T1 construct: injecting approximately 50 ng of WT Shaker cRNA (kit Ambion) into the oocytes; expressed in transfected cells; host or cells: Xenopus laevis oocytes (cRNA injection)
Kind of series: Inhibition of K+ currents, cut-open oocyte voltage clamp. Conditions: for fold less potent than 4-AP: cut-open oocyte voltage clamp (Example 2); for IC50: relative K+ current at +20 mV, Xenopus oocytes, Hill fit, read-out: half-maximal inhibitory concentration (IC50). The series is classed as cell-based, Xenopus oocytes. The method, then:
Using the cut-open oocyte voltage clamp studies to screen compounds to determine their potency towards Kv1 cannels was previously described in Starace and Bezanilla et al. (2004).
For this experiment, Shaker K^+ channel from D. […] was chosen as the archetypical voltage gated K^+ channel that gives name to the family.
Electrophysiology studies are conducted according to the protocol by Stefani and Bezanilla (1998). Briefly, K^+ channel Shaker cRNA is injected into Xenopus oocytes 24 h after their surgical extraction from adult frogs. 1-5 days after injection channel currents are recorded using the cut-open voltage-clamp.
K^+ channel expression in Xenopus oocytes membranes was achieved by injecting approximately 50 ng of WT Shaker cRNA (kit Ambion) into the oocytes 24 h after surgical extraction from adult frogs and collagenase treatment. Injected oocytes were maintained in a standard oocytes solution (100 mM NaCl, 5 mM KCl, 2 mM CaCl2, and 10 mM Hepes at pH 7.5) at 16.5° C. and recordings were performed 1-3 days after injection.
K^+ currents were recorded from oocytes expressing Shaker K^+ channels using the cut-open voltage clamp technique as described by Stefani and Bezanilla. The internal solution was 120 mM KOH, 20 mM HEPES-methyl sulfonate (MES) pH 7.4, 2 mM EGTA. The external solution was 12 mM KOH, 105 mM N-methyl-D-glucamine-MES pH 7.4, 20 mM HEPES, 2 mM CaOH. […] After application, cells were voltage-clamped at least 5 min at 0 mV, then voltage-clamped at −80 mV for 1-2 min. K^+ currents were generated by applying series of 50 ms pulses from −70 mV to +40 mV in increments of 10 mV. […] Analysis of the traces was done using an in-house software. The half-maximal inhibitory concentration (IC50) for each drug was calculated by plotting the relative K^+ current vs. concentration and fitted to the Hill equation using the software Origin.
EC50=10^<log EC50>; where <log EC50>=average of log EC50 values from all experiments with the same drug. 95% C.I.=[Upper Limit . . . Lower Limit]; where U.L.=10^(log EC50+s.d.) and L.L.=10^(log EC50−s.d.). The half-life (t1/2) in the stability and pharmacokinetic experiments was calculated by fitting the data to the equation Ct=C0*exp(−k*t) where C0=initial concentration, Ct=concentration at time t, and k=ln 2/t1/2. Student t-test was used to compare results and P<0.05 was considered significant.

The structures appear in SMILES notation.

T1 sequence (P08510 whole entry): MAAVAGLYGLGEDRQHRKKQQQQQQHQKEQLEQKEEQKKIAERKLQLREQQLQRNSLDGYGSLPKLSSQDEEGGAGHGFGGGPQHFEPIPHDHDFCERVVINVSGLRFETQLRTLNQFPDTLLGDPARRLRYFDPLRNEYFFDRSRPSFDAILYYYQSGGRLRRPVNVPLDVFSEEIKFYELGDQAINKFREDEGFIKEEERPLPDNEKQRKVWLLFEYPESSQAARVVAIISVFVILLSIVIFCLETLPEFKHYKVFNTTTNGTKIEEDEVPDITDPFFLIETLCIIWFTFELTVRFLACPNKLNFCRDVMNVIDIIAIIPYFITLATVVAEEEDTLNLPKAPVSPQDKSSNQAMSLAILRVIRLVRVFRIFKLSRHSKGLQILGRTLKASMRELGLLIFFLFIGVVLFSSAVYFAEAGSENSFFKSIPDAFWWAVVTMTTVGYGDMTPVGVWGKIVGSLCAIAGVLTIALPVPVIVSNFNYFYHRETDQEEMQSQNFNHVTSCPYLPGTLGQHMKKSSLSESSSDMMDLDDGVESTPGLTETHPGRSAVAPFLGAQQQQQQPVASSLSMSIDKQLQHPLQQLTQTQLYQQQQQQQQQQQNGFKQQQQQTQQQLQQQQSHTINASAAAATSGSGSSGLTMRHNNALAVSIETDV

In the case of `Nc1ccnc(F)c1` [2-F-4-AP, 2-fluoro-4-aminopyridine], the “effect on CAP” value in series [1] (hypomyelinated optic nerve) was “no effect”. Besides, the effects in mice entry in the series with C57Bl/6J mice is recorded as “did not cause any effects”. The Effect result in the series on C57Bl/6J mice (i.p., 1920 μmol/kg) is reported as “No effect”. Moreover, at Shaker K^+ channel, the “fold less potent than 4-AP” value was “at least a hundred fold-less potent” and the IC50 is more than 10 mM.

Consider `Nc1ccncc1CCF` [3-EtF-4-AP, 3-fluoroethyl-4-aminopyridine], for which, on Shaker K^+ channel, the “fold less potent than 4-AP” value is “at least a hundred fold-less potent” and the IC50 is more than 10 mM.

For `Nc1ccncc1CF` [3-MeF-4-AP, 3-fluoromethyl-4-aminopyridine], the EC50 in series [1] was determined as 0.286 mM. Besides, the Effect result with C57Bl/6J mice (i.p., 30 μmol/kg) is reported as “No effect”. The Effect result in the series on C57Bl/6J mice (i.p., 60 μmol/kg) is on record as “Very mild tremor. Normal after 30 min”. In addition, in the series on C57Bl/6J mice (i.p., 90 μmol/kg), the “duration of effect (tremors, seizures or jerks)” value was approximately 45 min; the Effect entry was “Tremor and occasional jerks that last ca”. Besides, in the series with C57Bl/6J mice (i.p., 120 μmol/kg), the “duration of tremor and seizures” value was “min post-injection and last ca. 45 min”; the “mice died of seizure” value is given as 1 of 5 mice died of seizure; the “start of tremor and seizures post-injection” value amounted to 5 min; the Effect result was “Severe tremor and seizures”. Also, in the series on C57Bl/6J mice (i.p., mice), the “in vivo potency compared with 4-AP” value is on record as “slightly less potent than 4-AP”. In addition, at Shaker K^+ channel, the “fold less potent than 4-AP” value is “around 10 fold” and the IC50 is 7.45 mM. Moreover, the “times less potent than 4-AP” value on Shaker K^+ channel (voltage-clamp and optic nerve experiments together) is on record as 6-20 times.

Consider `Nc1ccncc1CO` [3-MeOH-4-AP, 3-methanol-4-aminopyridine, reference compound], for which the EC50 in series [1] was 0.386 mM. In addition, the effects in mice result in the series on C57Bl/6J mice is “did not cause any effects”. Moreover, the Effect entry in the series on C57Bl/6J mice (i.p., 960 μmol/kg) was “No effect”. In addition, at Shaker K^+ channel, the IC50 amounted to 4.38 mM.

For the origin of these results see patent US10442767B2 (priority 2012, dated 2019).
